In ChEMBL document CHEMBL3813700, “New halogenated tris-(phenylalkyl)amines as h5-HT2B receptor ligands” (Bioorg Med Chem Lett, 2016):

Assays:
[1] = biological target: 5-hydroxytryptamine receptor 2A (Homo sapiens, UniProt P28223); assay: Displacement of [3H]ketanserin from human 5-HT2A receptor measured after 90 mins by microbeta scintillation counting method
[2] = biological target: T1, 5-hydroxytryptamine receptor 2B (Homo sapiens, UniProt P41595); assay: Displacement of [3H]LSD from human 5-HT2B receptor measured after 90 mins by microbeta scintillation counting method
T1 sequence (P41595 whole entry): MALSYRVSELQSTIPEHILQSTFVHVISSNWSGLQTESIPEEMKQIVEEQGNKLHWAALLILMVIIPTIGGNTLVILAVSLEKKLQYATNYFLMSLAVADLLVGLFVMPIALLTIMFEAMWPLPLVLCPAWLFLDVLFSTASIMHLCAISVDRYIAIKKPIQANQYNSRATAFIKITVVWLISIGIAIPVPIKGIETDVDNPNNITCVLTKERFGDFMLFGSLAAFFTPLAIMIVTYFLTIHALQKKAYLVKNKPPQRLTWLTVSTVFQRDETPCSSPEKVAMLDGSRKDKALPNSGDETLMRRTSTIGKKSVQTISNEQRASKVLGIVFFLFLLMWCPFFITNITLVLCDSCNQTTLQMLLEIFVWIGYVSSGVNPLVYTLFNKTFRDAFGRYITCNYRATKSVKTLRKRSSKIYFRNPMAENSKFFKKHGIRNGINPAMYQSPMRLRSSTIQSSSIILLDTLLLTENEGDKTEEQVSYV

[3] = biological target: T2, 5-hydroxytryptamine receptor 2C (Homo sapiens, UniProt P28335); assay: Displacement of [3H]mesulergine from human 5-HT2C receptor measured after 90 mins by microbeta scintillation counting method
T2 sequence (P28335 whole entry): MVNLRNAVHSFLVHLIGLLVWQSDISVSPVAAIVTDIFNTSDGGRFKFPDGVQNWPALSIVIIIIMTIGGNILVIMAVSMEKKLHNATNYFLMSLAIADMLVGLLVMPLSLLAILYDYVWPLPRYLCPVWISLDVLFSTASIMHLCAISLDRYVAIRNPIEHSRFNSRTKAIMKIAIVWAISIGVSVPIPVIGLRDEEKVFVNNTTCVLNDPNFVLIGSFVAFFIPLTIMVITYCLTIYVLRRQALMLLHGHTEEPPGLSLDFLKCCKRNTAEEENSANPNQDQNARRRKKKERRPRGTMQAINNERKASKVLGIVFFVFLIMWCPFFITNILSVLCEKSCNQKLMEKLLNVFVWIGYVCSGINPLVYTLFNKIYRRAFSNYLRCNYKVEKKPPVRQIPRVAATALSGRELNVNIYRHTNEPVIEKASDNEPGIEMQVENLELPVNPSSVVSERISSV

[4] = species: Homo sapiens; assay: Selectivity index, ratio of Ki for human 5-HT2A receptor to Ki for human 5-HT2B receptor
[5] = species: Homo sapiens; assay: Selectivity index, ratio of Ki for human 5-HT2C receptor to Ki for human 5-HT2B receptor
[6] = biological target: T1, 5-hydroxytryptamine receptor 2B; assay: Antagonist activity at human 5-HT2B receptor by PDSP assay

Sequence of 5-hydroxytryptamine receptor 2A (P28223 whole entry): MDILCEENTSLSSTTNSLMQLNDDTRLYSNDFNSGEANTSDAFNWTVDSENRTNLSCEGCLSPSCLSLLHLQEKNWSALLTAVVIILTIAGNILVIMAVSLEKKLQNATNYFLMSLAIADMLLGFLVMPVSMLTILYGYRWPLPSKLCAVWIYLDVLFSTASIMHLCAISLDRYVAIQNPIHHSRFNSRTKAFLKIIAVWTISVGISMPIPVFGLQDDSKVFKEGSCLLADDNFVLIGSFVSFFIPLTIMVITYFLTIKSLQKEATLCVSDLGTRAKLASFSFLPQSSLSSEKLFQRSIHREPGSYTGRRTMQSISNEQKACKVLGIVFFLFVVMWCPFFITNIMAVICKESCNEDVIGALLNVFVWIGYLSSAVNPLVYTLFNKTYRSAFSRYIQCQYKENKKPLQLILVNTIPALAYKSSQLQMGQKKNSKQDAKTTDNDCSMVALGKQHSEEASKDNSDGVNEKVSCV

Row | Ki [1] | Ki [2] | Ki [3] | Ratio Ki [4] | Ratio Ki [5] | IC50 [6] | Compound
1 | 54 nM | 3.4 nM | 124 nM | 16 | 36 | 326 nM | COc1ccc(CCN(CCCc2ccccc2Br)CCc2ccc3c(c2)OCO3)cc1OC
2 | 221 nM | 45 nM | 219 nM | 5 | 5 |  | COc1ccc(CCN(CCCc2ccc(Br)cc2)CCc2ccc3c(c2)OCO3)cc1OC
3 | 103 nM | 14 nM | 143 nM | 7 | 10 |  | COc1ccc(CCN(CCCc2cccc(Br)c2)CCc2ccc3c(c2)OCO3)cc1OC
4 | 65 nM | 1.7 nM | 79 nM | 38 | 46 | 135 nM | COc1ccc(CCN(CCCc2ccccc2F)CCc2ccc3c(c2)OCO3)cc1OC
5 | 185 nM | 14 nM | 126 nM | 13 | 9 |  | COc1ccc(CCN(CCCc2ccc(F)cc2)CCc2ccc3c(c2)OCO3)cc1OC
6 |  | 21 nM |  |  |  |  | Cn1ccc2cc(NC(=O)Nc3cccnc3)ccc21
7 |  |  |  | 6 | 15 |  | COc1ccc(CCN(CCCc2ccccc2)CCc2ccc3c(c2)OCO3)cc1OC
8 | 169 nM | 18 nM | 154 nM | 9 | 9 |  | COc1ccc(CCN(CCCc2cccc(I)c2)CCc2ccc3c(c2)OCO3)cc1OC
9 | 365 nM | 54 nM | 235 nM | 7 | 4 |  | COc1ccc(CCN(CCCc2ccc(Cl)cc2)CCc2ccc3c(c2)OCO3)cc1OC
10 | 75 nM | 13 nM | 68 nM | 6 | 5 |  | COc1ccc(CCN(CCCc2ccccc2I)CCc2ccc3c(c2)OCO3)cc1OC
11 | 125 nM | 17 nM | 206 nM | 7 | 12 |  | COc1ccc(CCN(CCCc2cccc(Cl)c2)CCc2ccc3c(c2)OCO3)cc1OC
12 | 288 nM | 51 nM | 224 nM | 6 | 4 |  | COc1ccc(CCN(CCCc2ccc(I)cc2)CCc2ccc3c(c2)OCO3)cc1OC
13 | 185 nM | 18 nM | 167 nM | 10 | 9 |  | COc1ccc(CCN(CCCc2cccc(F)c2)CCc2ccc3c(c2)OCO3)cc1OC
14 | 43 nM | 3.1 nM | 92 nM | 14 | 30 | 99 nM | COc1ccc(CCN(CCCc2ccccc2Cl)CCc2ccc3c(c2)OCO3)cc1OC
